Measurements reported in PMC6976901 (Toxicology Reports, 2020).
Like-named read-outs stand apart in the source and are kept apart here. Marks after values point to notes of the source that are not given here.

Legend:
liver (hepatotoxicity) = settings: cited from earlier work
in vitro = settings: human, Caco-2
[1] = fraction absorbed, oral; cited from earlier work
[2] = system: human intestinal epithelial Caco-2 cell monolayer; settings: apical pH 6.0 to basal pH 7.4, mean ± SD of triplicate; for Papp: Table 1 primary set; for observed Papp: Table 2 secondary set
[3] = Table 1, Hazard Evaluation Support System Integrated Platform
[4] = Table 2, Hazard Evaluation Support System Integrated Platform

| Molecule | Papp (in vitro) | also measured |
| --- | --- | --- |
| CC(C)(c1ccc(O)cc1)c1ccc(O)cc1 [bisphenol A] | 32.1 ± 1.3 ×10⁻⁶ cm/s | hepatic NOEL (liver (hepatotoxicity); [3]): 200 mg/kg/day |
| [H]/N=C(/N)c1ccc(NCc2nc3cc(C(=O)N(CCC(=O)O)c4ccccn4)ccc3n2C)cc1 [dabigatran, reference compound] | 3.8 ± 1.7 ×10⁻⁶ cm/s |  |
| COc1ccc2c3c1O[C@H]1[C@@H](O)CC[C@H]4[C@@H](C2)N(C)CC[C@@]341 [dihydrocodeine, reference compound] | 2.4 ± 0.1 ×10⁻⁶ cm/s |  |
| CN/C(=N/CCSCc1nc[nH]c1C)NC#N [cimetidine, reference compound] | 1.7 ± 0.2 ×10⁻⁶ cm/s | reported human Fa [1]: 68 [7] % |
| Oc1nc2ccccc2[nH]1 [2-hydroxybenzimidazole] | 50.7 ± 1.6 ×10⁻⁶ cm/s |  |
| CN1CCC[C@H]1c1cccnc1 [nicotine, reference compound] | 5.7 ± 0.6 ×10⁻⁶ cm/s | reported human Fa [1]: 100 [8] % |
| O=C(O)Cc1ccccc1Nc1c(Cl)cccc1Cl [diclofenac, reference compound] | 75.6 ± 0.6 ×10⁻⁶ cm/s | reported human Fa [1]: 82 [25] % |
| lucifer yellow [reference compound] |  | Papp [2]: 7 ± 1 nm/s; reported human Fa [1]: 0 [27] % |
| Cc1cc2c(s1)Nc1ccccc1N=C2N1CCN(C)CC1 [olanzapine, reference compound] | 3.5 ± 0.3 ×10⁻⁶ cm/s |  |
| Cc1ccc(N)cc1C [3,4-dimethylaniline] | 54.1 ± 5.8 ×10⁻⁶ cm/s | hepatic NOEL (liver (hepatotoxicity); [3]): 50 mg/kg/day |
| CCc1cccc(O)c1 [3-ethylphenol] | 51.5 ± 5 ×10⁻⁶ cm/s | hepatic NOEL (liver (hepatotoxicity); [4]): 300 mg/kg/day |
| CCOc1ccc(N)cc1 [p-phenetidine] |  | observed Papp [2]: 58.2 ± 3.1 ×10⁻⁶ cm/s; hepatic NOEL (liver (hepatotoxicity); [4]): 160 mg/kg/day |
| COc1ccc2[nH]c([S+]([O-])Cc3ncc(C)c(OC)c3C)nc2c1 (stereo not shown) [omeprazole, reference compound] |  | reported human Fa [1]: 95 [7] % |
| Nc1ccc(C(=O)O)cc1 [p-aminobenzoic acid] | 58.7 ± 4 ×10⁻⁶ cm/s |  |
| CN(C)c1ccccc1 [N,N-dimethylaniline] | 99.9 ± 12.9 ×10⁻⁶ cm/s |  |
| O=C(O)c1ccccc1 [benzoic acid] | 149 ± 16 ×10⁻⁶ cm/s |  |
| CC[C@H](C)C(=O)O[C@H]1C[C@H](O)C=C2C=C[C@H](C)[C@H](CC[C@@H](O)C[C@@H](O)CC(=O)O)[C@H]21 [pravastatin, reference compound] | 0.9 ± 0.1 ×10⁻⁶ cm/s | reported human Fa [1]: 13 [31] % |
| O=C1NC(=O)c2ccccc21 [phthalimide] | 93.3 ± 6.9 ×10⁻⁶ cm/s |  |
| Cc1ccc(O)cc1 [p-cresol] | 50.7 ± 4.5 ×10⁻⁶ cm/s |  |
| N#Cc1ccc(C#N)cc1 [terephthalonitrile] | 57.3 ± 1.3 ×10⁻⁶ cm/s | hepatic NOEL (liver (hepatotoxicity); [3]): 20 mg/kg/day |
| CN1C(=O)CC[C@H]1c1cccnc1 [cotinine] | 41.2 ± 2.9 ×10⁻⁶ cm/s | reported human Fa [1]: 90 [8] % |

| Molecule | Papp (in vitro) | also measured |
| --- | --- | --- |
| Nc1ccccc1 [aniline] | 54.4 ± 2.6 ×10⁻⁶ cm/s |  |
| CC(C)N(CCC(C(N)=O)(c1ccccc1)c1ccccn1)C(C)C (stereo not shown) [disopyramide, reference compound] | 1.4 ± 0.3 ×10⁻⁶ cm/s | reported human Fa [1]: 83 [7] % |
| Oc1cccc(-c2ccccc2)c1 [3-hydroxybiphenyl] | 28.4 ± 2.2 ×10⁻⁶ cm/s |  |
| O=C(O)c1ccc(O)cc1 [p-hydroxybenzoic acid] | 60.9 ± 3 ×10⁻⁶ cm/s |  |
| c1ccc2[nH]cnc2c1 [benzimidazole] | 73 ± 0.6 ×10⁻⁶ cm/s |  |
| Cc1cc(N)c(S(=O)(=O)O)cc1Cl [5-amino-2-chlorotoluene-4-sulfonic acid] | 2 ± 0.2 ×10⁻⁶ cm/s | hepatic NOEL (liver (hepatotoxicity); [3]): 1000 mg/kg/day |
| COc1ccc(C(=O)NCc2ccc(OCCN(C)C)cc2)cc1OC [itopride, reference compound] | 1.2 ± 0.3 ×10⁻⁶ cm/s |  |
| Oc1ccc(Cl)cc1 [4-chlorophenol] | 43.1 ± 3.7 ×10⁻⁶ cm/s |  |
| Cc1ncc2n1-c1ccc(Cl)cc1C(c1ccccc1F)=NC2 [midazolam, reference compound] | 31.8 ± 1.9 ×10⁻⁶ cm/s | reported human Fa [1]: 60 [28] % |
| Nc1cccc2c1C(=O)N(C1CCC(=O)NC1=O)C2=O (stereo not shown) [pomalidomide, reference compound] | 46.6 ± 5.7 ×10⁻⁶ cm/s | reported human Fa [1]: 73 [29] % |
| CCCCNC(=O)NS(=O)(=O)c1ccc(C)cc1 [tolbutamide, reference compound] | 122 ± 11 ×10⁻⁶ cm/s |  |
| Oc1ccccc1Cl [2-chlorophenol] | 75.2 ± 8.3 ×10⁻⁶ cm/s | hepatic NOEL (liver (hepatotoxicity); [4]): 200 mg/kg/day |
| CC(=O)CC(c1ccccc1)c1c(O)c2ccccc2oc1=O (stereo not shown) [warfarin, reference compound] | 121 ± 5 ×10⁻⁶ cm/s |  |
| COCCc1ccc(OCC(O)CNC(C)C)cc1 (stereo not shown) [metoprolol, reference compound] | 3.4 ± 0.1 ×10⁻⁶ cm/s |  |
| O=C1CCC(N2C(=O)c3ccccc3C2=O)C(=O)N1 (stereo not shown) [thalidomide, reference compound] | 23.5 ± 1.9 ×10⁻⁶ cm/s |  |
| Oc1ccc(Cc2ccc(O)cc2)cc1 [bisphenol F] |  | observed Papp [2]: 41.5 ± 2.1 ×10⁻⁶ cm/s; hepatic NOEL (liver (hepatotoxicity); [4]): 100 mg/kg/day |
| CC(=O)Nc1ccc(O)cc1 [acetaminophen, reference compound] | 31.9 ± 1.4 ×10⁻⁶ cm/s | reported human Fa [1]: 100 [23] %; hepatic NOEL (liver (hepatotoxicity); Table 2): 250 [11] mg/kg/day |
| CN(C)C [trimethylamine] |  | Papp [2]: 33 ± 1 nm/s |
| Sc1nc2ccccc2[nH]1 [2-mercaptobenzimidazole] | 67.3 ± 1.8 ×10⁻⁶ cm/s | hepatic NOEL (liver (hepatotoxicity); [3]): 2 mg/kg/day |
| CC(C)NCC(O)COc1cccc2ccccc12 (stereo not shown) [propranolol, reference compound] | 2.9 ± 0.3 ×10⁻⁶ cm/s |  |
| CCOc1ccc2ccc(=O)oc2c1 [7-ethoxycoumarin] | 75 ± 4.8 ×10⁻⁶ cm/s |  |

| Molecule | Papp (in vitro) | also measured |
| --- | --- | --- |
| N#Cc1cccc(C#N)c1 [isophthalonitrile] |  | Papp [2]: 805 ± 8 ^a nm/s; hepatic NOEL (liver (hepatotoxicity); [3]): 8 mg/kg/day |
| Cc1cc(Cl)ccc1O [4-chloro-o-cresol] | 75.4 ± 3.9 ×10⁻⁶ cm/s | hepatic NOEL (liver (hepatotoxicity); [4]): 250 mg/kg/day |
| Cc1cc(C)cc(N)c1 [3,5-dimethylaniline] | 67.4 ± 11.3 ×10⁻⁶ cm/s | hepatic NOEL (liver (hepatotoxicity); [3]): 10 mg/kg/day |
| Cc1cccc(N)c1C [2,3-dimethylaniline] | 62.4 ± 3 ×10⁻⁶ cm/s | hepatic NOEL (liver (hepatotoxicity); [3]): 12 mg/kg/day |
| Cc1ccc(N)c(C)c1 [2,4-dimethylaniline] | 66.1 ± 2 ×10⁻⁶ cm/s | hepatic NOEL (liver (hepatotoxicity); [3]): 2 mg/kg/day |
| CCCCC(CC)COC(=O)c1ccccc1C(=O)O (stereo not shown) [mono(2-ethylhexyl) phthalate] |  | Papp [2]: 467 ± 18 nm/s |
| Cc1cccc(Nc2ccccc2C(=O)O)c1C [mefenamic acid, reference compound] | 180 ± 8.3 ×10⁻⁶ cm/s |  |
| O=C(O)CNC(=O)c1ccccc1 [hippuric acid] | 0.6 ± 0.1 ×10⁻⁶ cm/s |  |
| CC(C)NCC(O)COc1ccc(CC(N)=O)cc1 (stereo not shown) [atenolol] |  | reported human Fa [1]: 50 [7] % |
| CC[C@H](C)C(=O)O[C@H]1C[C@@H](C)C=C2C=C[C@H](C)[C@H](CC[C@@H]3C[C@@H](O)CC(=O)O3)[C@H]21 [lovastatin, reference compound] | 2.1 ± 0.1 ×10⁻⁶ cm/s | reported human Fa [1]: 31 [7] % |
| Oc1ccccc1-c1ccccc1 [2-hydroxybiphenyl] | 33.4 ± 2.9 ×10⁻⁶ cm/s |  |
| CNCC[C@@H](Oc1ccccc1C)c1ccccc1 [atomoxetine, reference compound] | 2.7 ± 0.1 ×10⁻⁶ cm/s | reported human Fa [1]: 100 [8] % |
| Sc1ncc[nH]1 [2-mercaptoimidazole] | 9.1 ± 0.3 ×10⁻⁶ cm/s |  |
| Nc1cccc(S(=O)(=O)O)c1 [3-aminobenzenesulfonic acid] | 2.1 ± 0.3 ×10⁻⁶ cm/s |  |
| CCc1ccc(O)cc1 [4-ethylphenol] | 43.7 ± 2.3 ×10⁻⁶ cm/s | hepatic NOEL (liver (hepatotoxicity); [4]): 100 mg/kg/day |
| CN(Cc1cnc2nc(N)nc(N)c2n1)c1ccc(C(=O)N[C@@H](CCC(=O)O)C(=O)O)cc1 [methotrexate, reference compound] | 1.1 ± 0.2 ×10⁻⁶ cm/s | reported human Fa [1]: 20 [24] % |
| COP(=O)(OC)SCn1c(=O)oc2cc(Cl)cnc21 [azamethiphos] | 40.2 ± 1.8 ×10⁻⁶ cm/s |  |
| Nc1ccccc1Cl [2-chloroaniline] | 89.3 ± 2.6 ×10⁻⁶ cm/s |  |
| Cc1ccccc1O [o-cresol] | 90.5 ± 6.4 ×10⁻⁶ cm/s |  |
| N#Cc1cccnc1 [3-cyanopyridine] | 56.9 ± 7 ×10⁻⁶ cm/s | hepatic NOEL (liver (hepatotoxicity); [3]): 5 mg/kg/day |
| Cc1cccc(O)c1 [m-cresol] | 85.1 ± 3.5 ×10⁻⁶ cm/s | hepatic NOEL (liver (hepatotoxicity); [3]): 100 mg/kg/day |

| Molecule | Papp (in vitro) | also measured |
| --- | --- | --- |
| CCCCOC(=O)c1ccccc1C(=O)O [monobutyl phthalate] | 31.8 ± 0.8 ×10⁻⁶ cm/s |  |
| C[C@@H]1C[C@H]2[C@@H]3CCC4=CC(=O)C=C[C@]4(C)[C@@]3(F)[C@@H](O)C[C@]2(C)[C@@]1(O)C(=O)CO [dexamethasone, reference compound] | 9.5 ± 1.4 ×10⁻⁶ cm/s | reported human Fa [1]: 90 [8] % |
| CN(C)CCCOc1nn(Cc2ccccc2)c2ccccc12 [benzydamine, reference compound] | 1.6 ± 0.1 ×10⁻⁶ cm/s |  |
| Nc1cccc([N+](=O)[O-])c1 [3-nitroaniline] | 52 ± 5 ×10⁻⁶ cm/s | hepatic NOEL (liver (hepatotoxicity); [3]): 15 mg/kg/day |
| COc1cc([N+](=O)[O-])ccc1N [2-methoxy-4-nitroaniline] | 55.2 ± 7 ×10⁻⁶ cm/s | hepatic NOEL (liver (hepatotoxicity); [4]): 100 mg/kg/day |
| Nc1cccc2c1CN(C1CCC(=O)NC1=O)C2=O (stereo not shown) [lenalidomide, reference compound] | 0.7 ± 0.1 ×10⁻⁶ cm/s | reported human Fa [1]: 90 [26] % |
| c1ccc(Nc2ccccc2)cc1 [diphenylamine] | 15.1 ± 1.1 ×10⁻⁶ cm/s |  |
| Nc1ccccc1-c1ccccc1 [2-aminobiphenyl] | 57.6 ± 1.1 ×10⁻⁶ cm/s | hepatic NOEL (liver (hepatotoxicity); [3]): 100 mg/kg/day |
| CCNc1ccccc1 [N-ethylaniline] | 66 ± 1 ×10⁻⁶ cm/s | hepatic NOEL (liver (hepatotoxicity); [3]): 5 mg/kg/day |
| CNc1ccccc1 [N-methylaniline] | 46.3 ± 5 ×10⁻⁶ cm/s | hepatic NOEL (liver (hepatotoxicity); [3]): 5 mg/kg/day |
| O=c1ccc2ccc(O)cc2o1 [7-hydroxycoumarin] | 103 ± 17 ×10⁻⁶ cm/s |  |
| Nc1cccc(O)c1 [3-aminophenol] | 51.3 ± 2.3 ×10⁻⁶ cm/s |  |
| CC(C)(c1ccccc1)c1ccc(O)cc1 [4-α-cumylphenol] | 19.5 ± 3.4 ×10⁻⁶ cm/s | hepatic NOEL (liver (hepatotoxicity); [4]): 100 mg/kg/day |
| CN1CCN2c3ncccc3Cc3ccccc3C2C1 (stereo not shown) [mirtazapine, reference compound] | 4.6 ± 0.3 ×10⁻⁶ cm/s |  |
| Oc1ccc(-c2ccccc2)cc1 [4-hydroxybiphenyl] | 44.1 ± 2.8 ×10⁻⁶ cm/s |  |
| OCCOCCN1CCN(C2=Nc3ccccc3Sc3ccccc32)CC1 [quetiapine, reference compound] | 3.8 ± 0.4 ×10⁻⁶ cm/s | reported human Fa [1]: 73 [30] % |
| CC(=O)[C@H]1CC[C@H]2[C@@H]3CCC4=CC(=O)CC[C@]4(C)[C@H]3CC[C@]12C [progesterone, reference compound] | 11.3 ± 2 ×10⁻⁶ cm/s |  |
| CCC(C)c1ccc(O)cc1 (stereo not shown) [4-sec-butylphenol] | 40.2 ± 1.9 ×10⁻⁶ cm/s |  |
